Measured values taken from ChEMBL document CHEMBL4837181 (Eur J Med Chem, 2020).
Where a SMILES comes first, the peptide text is derived from it. [ ]: non-standard residue; d: D form. dTrp(1-Me) = Cn1cc(C[C@@H](N)C(=O)O)c2ccccc21

Tests used:
[1] = Chemical stability of compound in simulated intestinal fluid assessed as compound remaining at 5 uM measured after 3 hrs by LC-MS/MS analysis; format: ADME, physicochemical; conditions: read-out: Stabilty
[2] = Stability in human plasma assessed as parent compound remaining measured after 24 hrs by LC-MS/MS analysis; format: ADME, cell-free; conditions: read-out: Stabilty
[3] = Stability in human plasma assessed as parent compound remaining measured after 6 hrs by LC-MS/MS analysis; format: ADME, cell-free; conditions: read-out: Stabilty
[4] = Chemical stability of compound in 0.1 N aqueous HCl buffer assessed as compound remaining at pH 1 at 5 uM measured after 24 hrs by LC-MS/MS analysis; format: physicochemical; conditions: pH 1, 24 h
[5] = Change in normalised AUCinfinity in rat at 10 mg/kg, po measured upto 72 hrs by LC-MS/MS analysis; format: ADME, organism-based; conditions: in vivo
[6] = Change in Cmax in rat at 37 umol/kg, po measured upto 72 hrs by LC-MS/MS analysis; format: ADME, organism-based; conditions: in vivo, at 37 µmol/kg
[7] = Chemical stability of compound in PBS buffer assessed as compound remaining at pH 7.4 at 5 uM measured after 6 hrs by LC-MS/MS analysis; format: physicochemical; conditions: read-out: Stabilty
[8] = Dose normalized Cmax in rat at 10 mg/kg, po measured upto 72 hrs by LC-MS/MS analysis; format: ADME, organism-based; conditions: in vivo
[9] = Chemical stability of compound in 0.1 N aqueous HCl buffer assessed as compound remaining at pH 1 at 5 uM measured after 1.5 hrs by LC-MS/MS analysis; format: physicochemical; conditions: pH 1, 1.5 h
[10] = Stability in mouse plasma assessed as parent compound remaining measured after 2 hrs by LC-MS/MS analysis; format: ADME, cell-free; conditions: read-out: Stabilty
[11] = Chemical stability of compound in simulated gastric fluid assessed as compound remaining at 5 uM measured after 1.5 hrs by LC-MS/MS analysis; format: ADME, physicochemical; conditions: read-out: Stabilty
[12] = Chemical stability of compound in simulated intestinal fluid assessed as compound remaining at 5 uM measured after 24 hrs by LC-MS/MS analysis; format: ADME, physicochemical; conditions: read-out: Stabilty
[13] = Chemical stability of compound in PBS buffer assessed as compound remaining at pH 7.4 at 5 uM measured after 24 hrs by LC-MS/MS analysis; format: physicochemical; conditions: read-out: Stabilty
[14] = Chemical stability of compound in simulated gastric fluid assessed as compound remaining at 5 uM measured after 24 hrs by LC-MS/MS analysis; format: ADME, physicochemical; conditions: read-out: Stabilty
[15] = Chemical stability of compound in saline assessed as compound remaining at 5 uM measured after 24 hrs by LC-MS/MS analysis; format: physicochemical; conditions: read-out: Stabilty
[16] = Stability in rat plasma assessed as parent compound remaining measured after 2 hrs by LC-MS/MS analysis; format: ADME, cell-free; conditions: read-out: Stabilty
[17] = Change in normalised Cmax in rat at 10 mg/kg, po measured upto 72 hrs by LC-MS/MS analysis; format: ADME, organism-based; conditions: in vivo
[18] = Dose normalized AUC (0 to infinity) in rat at 10 mg/kg, po measured upto 72 hrs by LC-MS/MS analysis; format: ADME, organism-based; conditions: in vivo
[19] = Change in AUC (infinity) in rat at 37 umol/kg, po measured upto 72 hrs by LC-MS/MS analysis; format: ADME, organism-based; conditions: in vivo, at 37 µmol/kg
[20] = Change in normalised Cmax in rat at 50 mg/kg, po measured upto 72 hrs by LC-MS/MS analysis; format: ADME, organism-based; conditions: in vivo
[21] = Change in normalised AUC (infinity) in rat at 50 mg/kg, po measured upto 72 hrs by LC-MS/MS analysis; format: ADME, organism-based; conditions: in vivo
[22] = Dose normalized Cmax in rat at 50 mg/kg, po measured upto 72 hrs by LC-MS/MS analysis; format: ADME, organism-based; conditions: in vivo
[23] = Dose normalized AUC (0 to infinity) in rat at 50 mg/kg, po measured upto 72 hrs by LC-MS/MS analysis; format: ADME, organism-based; conditions: in vivo

Row | Compound | remaining at 3 h, 5 µM [1] [%] | remaining at 24 h [2] [%] | remaining at 6 h [3] [%] | Stabilty [4] [%] | Activity [5] [%] | Activity [6] [%] | remaining at 6 h, 5 µM [7] [%] | Cmax/dose [8] [µM] | Stabilty [9] [%] | remaining at 2 h [10] [%] | remaining at 1.5 h, 5 µM [11] [%] | remaining at 24 h, 5 µM [12] [%] | remaining at 24 h, 5 µM [13] [%] | remaining at 24 h, 5 µM [14] [%] | remaining at 24 h, 5 µM [15] [%] | remaining at 2 h [16] [%] | Activity [17] [%] | AUC/dose [18] [µM·h] | Activity [19] [%] | Activity [20] [%] | also measured
1 | Cl.Cn1cc(C[C@@H](N)C(=O)OCC2CCNCC2)c2ccccc21 | 45 | 2 | 44 | 23 | 75 | -69 | 92 | 21.5 | 36 | 0 | 75 | 3 | 12 | 73 | 23 | 19 | 24 | 889 | -54 | – | –
2 | Cn1cc(C[C@@H](NC(=O)OCC(C)(C)C)C(=O)O)c2ccccc21 | – | – | – | – | – | – | – | – | – | 100 | – | – | – | – | – | 100 | – | – | – | -99 | Activity [21]: -100%; Cmax/dose [22]: 0.15 µM; AUC/dose [23]: 5.5 µM·h
3 | CCOC(=O)[C@@H](Cc1cn(C)c2ccccc12)NC(=O)[C@@H](N)CCC(N)=O.Cl | 70 | 0 | 23 | 85 | 58 | 12 | 67 | 24.4 | 73 | 0 | 108 | 1 | 17 | 88 | 85 | 0 | 41 | 806 | -1 | – | –
4 | Cl.Cn1cc(C[C@@H](N)C(=O)OCc2ccccc2)c2ccccc21 | – | – | – | – | – | – | – | – | – | 0 | – | – | – | – | – | 0 | – | – | – | 4 | Activity [21]: -22%; Cmax/dose [22]: 28 µM; AUC/dose [23]: 1028 µM·h
5 | Cl.Cn1cc(C[C@@H](N)C(=O)OCC(O)CO)c2ccccc21 (stereo partly drawn) | 34 | 11 | 33 | 99 | 17 | 28 | 50 | 33.3 | 37 | 0 | 62 | 10 | 29 | 58 | 99 | 0 | 92 | 595 | 21 | – | –
6 | Cl.Cn1cc(C[C@@H](N)C(=O)OCCC2CCNCC2)c2ccccc21 | 62 | 4 | 27 | 46 | -78 | – | 91 | 2.4 | 74 | 0 | 90 | 8 | 22 | 90 | 46 | 0 | -86 | 110 | – | – | –
7 | CC(C)OC(=O)[C@H](N)Cc1cn(C)c2ccccc12.Cl | – | – | – | – | – | – | – | – | – | 0 | – | – | – | – | – | 0 | – | – | – | 4 | Activity [21]: -21%; Cmax/dose [22]: 28 µM; AUC/dose [23]: 1051 µM·h

The next lines start with results.

Row | remaining at 3 h, 5 µM [1] [%] | remaining at 24 h [2] [%] | remaining at 6 h [3] [%] | Stabilty [4] [%] | Activity [5] [%] | Activity [6] [%] | remaining at 6 h, 5 µM [7] [%] | Cmax/dose [8] [µM] | Stabilty [9] [%] | remaining at 2 h [10] [%] | remaining at 1.5 h, 5 µM [11] [%] | remaining at 24 h, 5 µM [12] [%] | remaining at 24 h, 5 µM [13] [%] | remaining at 24 h, 5 µM [14] [%] | remaining at 24 h, 5 µM [15] [%] | remaining at 2 h [16] [%] | Activity [17] [%] | AUC/dose [18] [µM·h] | Activity [19] [%] | Activity [20] [%] | Compound | also measured
8 | 64 | 68 | 78 | 99 | 18 | 10 | 83 | 28 | 64 | 100 | 80 | 38 | 65 | 78 | 99 | 56 | 62 | 599 | 1 | – | Cl.Cn1cc(C[C@@H](NC(=O)CN)C(=O)O)c2ccccc21 (H-Gly-[dTrp(1-Me)]-OH) | –
9 | – | – | – | – | – | – | – | – | – | 97 | – | – | – | – | – | 100 | – | – | – | -78 | CCOC(=O)N[C@H](Cc1cn(C)c2ccccc12)C(=O)O | Activity [21]: -83%; Cmax/dose [22]: 6 µM; AUC/dose [23]: 229 µM·h
10 | 96 | 78 | 96 | 100 | 56 | 8 | 93 | 16.7 | 89 | 77 | 97 | 96 | 57 | 92 | 100 | 95 | -3 | 795 | -10 | – | Cl.Cn1cc(C[C@@H](NC(=O)[C@@H](N)CCCCN)C(=O)O)c2ccccc21 | –
11 | 94 | 86 | 84 | 98 | -38 | – | 100 | 12.5 | 92 | 80 | 81 | 0 | 100 | 77 | 98 | 54 | -28 | 316 | – | – | CC[C@H](C)[C@H](N)C(=O)N[C@H](Cc1cn(C)c2ccccc12)C(=O)O.Cl | –
